The results in this text go back to PubChem BioAssay (NCI).

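Assay format: 96-well plates, 48-hour exposure. TGI: total growth inhibition.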

Common to all, as to assay: NCI-60 cell line screen, 48 h
In assay [1] the test system is SF-539 CNS.
For assay [2], the system named is EKVX NSCLC.
The subject of assay [3] is IGROV1 ovarian.
Assay [4] deals with SF-268 CNS.
For assay [5], the system named is HCT-15 colon.
Assay [6] concerns TK-10 renal.
Assay [7] concerns MDA-N.
Assay [8] deals with HCC-2998 colon.
Assay [9] concerns MALME-3M melanoma.
Assay [10] relates to ACHN renal.

Take `CCN1CCCn2c(=O)[nH]c3cc(Br)cc1c32`: the TGI in assay [1], in assay [2], in assay [3], in [4], in [5] and in [6] was greater than 100 µM throughout. The TGI in [7], in assay [8], in [9] and in assay [10] was greater than 100 µM in each case.
Turning to `O=[N+]([O-])c1ccc2nc(/C=C(\O)c3ccc(Cl)cc3)c(/C=C(\O)c3ccc(Cl)cc3)nc2c1`, the TGI in assay [1], in assay [2], in assay [3], in [4], in [5] and in assay [6] was greater than 100 µM in each case. The TGI in assay [7], in [8], in assay [9] and in assay [10] was greater than 100 µM in each case.
`C=CCOC1(CC=C)C(=O)OC2C(O)COC21O` (centres undefined): the TGI in assay [1], in [2], in assay [3], in assay [4], in assay [5] and in assay [6] was greater than 100 µM in each case. For the same compound, the TGI in assay [7], in [8], in assay [9] and in assay [10] was greater than 100 µM in each case.
For the compound `O=c1nc2ccc3sc4ccccc4c(=O)c3n2c(=O)[nH]1`, the TGI in assay [1], in assay [2], in assay [3], in assay [4], in assay [5] and in [6] was greater than 100 µM throughout. For the same compound, the TGI in assay [7], in assay [8], in assay [9] and in [10] was greater than 100 µM each time.
`NC1c2c(Cl)sc(Cl)c2C(=O)C1O` (centres undefined): the TGI is greater than 100 µM in assay [1]; 57.6 µM in assay [2]; greater than 100 µM in assay [3]; greater than 100 µM in assay [4]; 30.1 µM in assay [5]; greater than 100 µM in assay [6]. Moreover, the TGI in [7] is greater than 100 µM; in assay [8], 30.7 µM; in assay [9] it was 82.4 µM; in assay [10], 99.6 µM.
For the compound `CC(=Nc1cc(Cl)cc(Cl)c1)c1ccncc1`, the TGI in [1], in [2], in assay [3], in assay [4], in assay [5] and in assay [6] was greater than 100 µM in each case. Also, the TGI in assay [7], in assay [8], in assay [9] and in assay [10] was greater than 100 µM each time.
On to `CC(C#N)N(CCc1ccccc1)C(=O)c1ccccc1` (centres undefined), for which the TGI in [1], in assay [2], in [3], in assay [4], in [5] and in [6] was greater than 100 µM in each case. For the same compound, the TGI in [7], in [8], in assay [9] and in assay [10] was greater than 100 µM each time.
Regarding `COc1cccc(C23CCCC(C2)N(C)CC3OC(=O)c2ccccc2)c1OC` (centres undefined), the TGI in assay [1] was greater than 100 µM; in assay [2], 72.7 µM; in assay [3] it was 37.4 µM; in assay [4], greater than 100 µM; in assay [5], 72.7 µM; in [7], 37.7 µM. Further, the TGI in assay [8] was 78.1 µM; in [9], 48.1 µM; in [10], greater than 100 µM.
With `COc1cc2c(cc1O)CCN(C)[C@H]2Cc1ccc(Oc2c(O)c(OC)cc3c2C[C@H]2c4c(c(OC)c(OC)c(OC)c4-3)CCN2C)cc1`, the TGI in assay [1] was determined as 11.5 µM; in assay [2] it was 11.3 µM; in assay [3], 10.7 µM; in assay [4], 11.5 µM; in assay [5], 10.1 µM; in assay [6] it was 11.3 µM. For the same compound, the TGI was found to be 9.95 µM in assay [7], 8.09 µM in assay [8], 13.6 µM in assay [9] and 10.7 µM in assay [10].
With `CC1=NN2C(=N)/C(=C/c3ccccc3)C(=O)N=C2S1`, the TGI in assay [1], in assay [2], in [3], in assay [4], in [5] and in assay [6] was greater than 100 µM each time. Moreover, the TGI in assay [7], in [8], in assay [9] and in [10] was greater than 100 µM each time.
Consider `N#Cc1c(N2CCN(c3ccc([N+](=O)[O-])cc3)CC2)[n+](=O)c2ccc(-c3ccc([N+](=O)[O-])cc3)cc2n1[O-]`, for which the TGI in [1] is greater than 100 µM; in [2] it was greater than 100 µM; in assay [3], greater than 77.8 µM; in [4], greater than 100 µM; in [5] it was greater than 100 µM; in assay [6], greater than 100 µM. For the same compound, the TGI in assay [7] is greater than 100 µM; in [8], greater than 57.3 µM; in assay [9], greater than 100 µM; in assay [10], greater than 100 µM.
For the compound `C=CCc1ccccc1C1CC2(C(=O)OC)OC1C(C(=O)OC)=C2C(=O)OC` (centres undefined), the TGI in [1], in assay [2], in assay [3], in assay [4], in assay [5] and in assay [6] was greater than 10 µM throughout. Further, the TGI in assay [7], in assay [8], in assay [9] and in assay [10] was greater than 10 µM each time.
With `CC(=O)O[C@H]1CCC2[C@@H]3CCC4NC(=O)C(C#N)C[C@]4(C)C3CC[C@@]21C` (some centres undefined), the TGI in assay [1], in assay [2], in assay [3], in [4], in assay [5] and in [6] was greater than 10 µM each time. Further, the TGI in [7], in [8], in assay [9] and in [10] was greater than 10 µM each time.
